We go through 89 molecules from ChEMBL document CHEMBL1157539, “Thousands of chemical starting points for antimalarial lead identification” (Nature, 2010).

This assay deals with Plasmodium falciparum. Put plainly: GSK_TCMDC: Inhibition of Plasmodium falciparum 3D7 in whole erythrocytes, using parasite LDH activity as an index of growth. Format: functional, organism-based. The note with it: Plasmodium falciparum, 3D7.

Each structure is given as a SMILES string.

In turn, `NCc1ccc(CNCc2cccc(-c3cccc(-c4nc5cc(F)ccc5[nH]4)c3)c2)cc1` came in with an XC50 of 308 nM.
Regarding `O=C(NC1CCCC1)c1cc2c(=O)n3ccccc3nc2[nH]/c1=N/CCc1ccccc1`, the XC50 was 649 nM.
In turn, `CCC(CC)OC(=O)C(C)c1cccc(C(=O)c2ccccc2)c1` (centres undefined) had an XC50 of 833 nM.
The value for `O=c1cc(NCCNCc2cccc(-c3ccccc3)c2)[nH]c2ccccc12` was 1030 nM.
The result for `CCOc1ccc2c(c1)C(C)(c1ccc3c(c1)C(C)CC(C)(C)N3)CC(C)(C)N2` (centres undefined) reads 803 nM; that for `CCCCCCN1CCCN(Cc2cccc(NC(=O)c3cc4ccccc4s3)c2)CC1`, 660 nM; that for `COc1ccc2nccc([C@@H](O)CN3CCC(NCc4nc5ccccc5[nH]4)CC3)c2c1`, 1070 nM.
The result for `CN(C)CCCc1cc2c(cc1Cl)CCN2C(=O)Nc1ccc(-c2ccncc2)c2ccccc12` reads 1180 nM; that for `CN(Cc1c(Cl)cnn1C)S(=O)(=O)c1ccc2ccccc2c1`, 1040 nM; that for `O=C1OC2(CN1CC1CCN(Cc3ccc(O)c(Cl)c3)CC1)c1ccccc1-c1ccccc12`, 756 nM.
Take `CC(C)OCCCNC(=O)c1nc(-c2cccc(C(F)(F)F)c2)sc1C(C)C`: the XC50 turned out to be 1160 nM.
`Cc1ccc(CNc2ccc3ncc(-c4cccc(C(=O)NCCN(C)C)c4)n3n2)c(C)c1` gave an XC50 of 588 nM.
With `FC(F)(F)c1cccc(CNCC2CCN(Cc3ccc4c(c3)OCO4)CC2)c1`, the XC50 was 725 nM.
Molecule `O=C(NCCCCN1CCC(c2c[nH]c3ccccc23)CC1)c1ccc(-c2ccc(C(F)(F)F)cc2)cc1` yielded an XC50 of 798 nM.
The value for `COc1ccc2nccc([C@@H](O)CN3CCC(NCc4nc5c(C#N)cccc5[nH]4)CC3)c2c1` was 999 nM.
In turn, `COc1ccccc1NC(=O)Nc1cccc(-c2ccc(-c3nc4cccc(C)c4[nH]3)s2)c1` yielded an XC50 of 579 nM.
Take `Nc1cccc(-c2ccc3ccnc(N)c3c2)c1`: the XC50 worked out at 796 nM.
The result for `COc1ccc(CCOc2c(C)nc(N)nc2N)cc1OC` reads 69.6 nM; that for `Cc1cccc2nc(-c3cccc(-c4cccc(NC(=O)c5csnn5)c4)c3)[nH]c12`, 304 nM.
In the case of `O=C(Nc1cccc(CN2CCCN(Cc3cccc(Cl)c3)CC2)c1)c1ccc(Cl)c(Cl)c1`, the XC50 came to 992 nM.
The result for `COc1ccc(-c2ccc(CNC(=O)c3ccc(C#N)cc3)c(F)c2)cc1CN1CCCN(C)CC1` reads 1140 nM; that for `CN1CCCCC1CCc1cc(C(=O)Nc2ccc(-c3ccc(O)cc3)cc2)ccc1O` (centres undefined), 1110 nM.
`CC(CN1CCN(C)CC1)C(=O)Nc1cccc(-c2cccc(-c3nc4ccccc4[nH]3)c2)c1` (centres undefined) displayed an XC50 of 1010 nM.
For the molecule `CC1CCNc2ccc(Cc3cnc(N)nc3N)cc21` (centres undefined), the XC50 worked out at 1040 nM.
As to `FC(F)(F)c1ccc2[nH]c(-c3ccc(-c4ccc(CNCCc5ccncc5)cc4)cc3)nc2c1`, the XC50 is 129 nM.
`Cc1c(-c2cccc(C(C)(C)NCCCN3CCCCC3)c2)cnc(N)c1C`: the XC50 is 938 nM.
The value for `O=C(/C=C/c1ccc(Cl)c(Cl)c1)NCCCCCCN1CCN(C(=O)Nc2cccc(Cl)c2)CC1` was 981 nM; that for `COc1ccc2c(NN=Cc3ccccc3)ccnc2c1` was 130 nM.
The molecule `COc1cccc2c(N/N=C/c3ccc([N+](=O)[O-])cc3)ccnc12` yielded an XC50 of 888 nM.
For the molecule `COc1ccc(NC(=O)/C=C/c2cc(F)cc(C(F)(F)F)c2)cc1OCCN(C(C)C)C(C)C`, the XC50 was found to be 669 nM.
Regarding `CC(=O)c1ccc(-c2ccc(C(=O)NCCCCN3CCC(c4ccc5c(c4OCC(N)=O)CCCC5)CC3)cc2)s1`, the XC50 came out at 893 nM.
Molecule `O=[N+]([O-])c1ccc(C(O)CNCCc2ccccc2)cc1OCc1ccccc1` (centres undefined) yielded an XC50 of 912 nM.
Consider `CCOc1ccc(C(Cc2ccccc2)NC(=O)c2cccnc2)cc1OCC` (centres undefined), for which the XC50 amounted to 769 nM.
The value for `CNC(=O)Cc1ccc(C(=O)Nc2cccc(-c3ccc(-c4nc5cccc(C)c5[nH]4)s3)c2)cc1` was 632 nM; that for `CCCCCCOc1ccc(C(=O)NCCCC2CCCN(CCCCCNC(=O)C=Cc3ccc(Cl)c(Cl)c3)C2)cc1` (centres undefined) was 703 nM.
On to `CCNc1cc(C(=O)NC(Cc2ccccc2)C(O)CNC2CCSCC2)cc(N2CCCC2=O)c1` (centres undefined), for which the XC50 was 133 nM.
The result for `O=C(NC1CCN(Cc2ccc(O)cc2)CC1)c1ccc(Cl)c(Cl)c1` reads 1180 nM; that for `Cc1ccccc1C1CCN(C2CCC(NC(=O)c3ccc(-c4ccccc4)s3)CC2)CC1` (centres undefined), 661 nM; that for `Cc1nc(-c2cccc(Nc3nccc(NCC(O)c4ccccc4C(F)(F)F)n3)c2)cs1` (centres undefined), 834 nM.
As for `COc1ccc2nccc([C@@H](O)CN3CCC(NC(=O)/C(=C/c4ccccc4)c4ccc(-c5ccccc5)cc4)CC3)c2c1`, the XC50 was found to be 1050 nM.
With `OC(c1cc(C(F)(F)F)nc2c(F)cccc12)C1CCCCN1` (centres undefined), the XC50 is 782 nM.
The value for `CC(C)CCN1CCCN(Cc2ccc(C(=O)Nc3ccc(F)c(F)c3)cc2)CC1` was 944 nM; that for `Oc1ccc2[nH]c(-c3cccs3)nc2c1CN1CCC(N2CCCC2)CC1` was 642 nM.
The result for `CS(=O)(=O)N1CC2(CCN(CCC(NC(=O)Nc3ccccc3)c3ccc(Cl)c(Cl)c3)CC2)c2ccccc21` (centres undefined) reads 823 nM; that for `O=C(NCCN1CCCCC1)c1cc2cc(-c3ccccc3)ccc2n1S(=O)(=O)c1ccccc1`, 1120 nM; that for `CCCc1cc2c3c(N)nc(N)nc3ccc2n1CC`, 47.7 nM.
Consider `CC(C)(C)c1cc(C(=O)N2CCN(c3nccnc3C#N)CC2)n(Cc2ccccc2)n1`, for which the XC50 amounted to 758 nM.
As to `Cc1cccc2nc(-c3cccc(-c4ccc(NC(=O)Nc5ccsc5)cc4)c3)[nH]c12`, the XC50 was found to be 116 nM.
The value for `COc1ccc(CCN(C)CCCCNC(=O)c2ccc(NC(=O)c3ccc(Cl)cc3)cc2)c(OC)c1` was 921 nM; that for `Cc1cccc2nc(-c3ccc(-c4cccc(NC(=O)NCc5cccc(F)c5)c4)s3)[nH]c12` was 760 nM.
As for `O=C(Nc1ccc(Cl)cc1)Nc1ccc2c(c1)N1CCN=C1S2`, the XC50 is 592 nM.
With `Cc1[nH]c2ccccc2c1C1=CCN(CCCCC2(C)C(=O)Nc3ccccc32)CC1` (centres undefined), the XC50 is 232 nM.
The result for `Cc1ccc2sc(N(CCCn3ccnc3)C(=O)c3ccco3)nc2c1C` reads 966 nM; that for `c1ccc(-c2nc(Nc3ccncc3)sc2-c2ccccc2)cc1`, 812 nM.
`Cc1cccc2nc(-c3ccc(-c4ccc(CN5CCCCC5CO)cc4)cc3)[nH]c12` (centres undefined) gave an XC50 of 808 nM.
The molecule `COc1c(C)[nH]c(C)c(-c2ccc(Oc3cccc(C(F)(F)F)c3)cc2)c1=O` yielded an XC50 of 314 nM.
`COc1cccc(Nc2nc(NCCO)c3ccccc3n2)c1` showed an XC50 of 151 nM.
Turning to `CN1CCN(Cc2ccc(-c3ccc4c(Nc5ccc(F)cc5Cl)ccnc4c3)o2)CC1`, the XC50 came to 143 nM.
The molecule `CO/C(=C\C=C\c1cc2cc(Cl)c(Cl)cc2[nH]1)C(=O)NCCCCN1CCN(c2ccccc2OC)CC1` registered an XC50 of 514 nM.
`Cc1cnc(NC(=O)c2cn(-c3ccccc3)nc2-c2cccs2)s1` had an XC50 of 945 nM.
Take `O=C(Cn1c(CCc2cccc(F)c2F)cc(=O)c2ccccc21)N(CCN1CCCCC1)Cc1ccc(-c2ccc(C(F)(F)F)cc2)cc1`: the XC50 worked out at 764 nM.
The result for `CC(C)NCc1cccc(-c2ccc(-c3nc4ccccc4[nH]3)cc2)c1` reads 761 nM; that for `COc1cccc(CCN(Cc2ccccc2-c2ccc(CNC3CC(C)(C)NC(C)(C)C3)cc2)C(=O)NC2CCCCC2)c1`, 932 nM; that for `Nc1cccc(CNCc2cccc(-c3ccc(-c4nc5cc(C(F)(F)F)ccc5[nH]4)cc3)c2)c1`, 360 nM.
In turn, `COc1c(C2CCN(CCCCNC(=O)c3ccc(C)c(-c4ccc(C(F)(F)F)cc4)c3)CC2)ccc2c1CCCC2` returned an XC50 of 883 nM.
In turn, `CC1CN(c2cnn(C/C=C/c3ccc(NC(=O)c4ccc([N+](=O)[O-])cc4)cc3)c(=O)c2Cl)CC(C)N1` (centres undefined) displayed an XC50 of 700 nM.
The molecule `Cc1cccc2nc(-c3cccc(-c4ccc(NC(=O)C(=O)c5cccn5C)cc4)c3)[nH]c12` returned an XC50 of 375 nM.
The result for `O=C(Nc1ccc(OC(F)(F)F)cc1)NC1CCN(c2ccnc3ccccc23)CC1` reads 297 nM; that for `Cc1ccc(CN2CCN(CC(O)COc3ccc4c(c3)CCC4)CC2)cc1` (centres undefined), 863 nM; that for `CC1(C)N=C(N)N=C(N)N1c1cc(Cl)c(Cl)c(Cl)c1`, 11.4 nM.
On to `Cc1cccc2nc(-c3ccc(-c4cccc(CNC5CCN(C)CC5)c4)s3)[nH]c12`, for which the XC50 was 182 nM.
`CC(C)(C)c1ccc(CNC(=O)c2ccc(-c3nc4ccc(Cl)cc4[nH]3)cc2)cc1` had an XC50 of 819 nM.
Molecule `Cc1cc(N[C@@H](Cc2ccccc2)C(=O)Nc2ccccc2)nc(NCC2CCCCC2)n1` showed an XC50 of 761 nM.
Consider `CC(=O)c1ccc(NC(=O)CSc2nc(-c3ccccc3Cl)ns2)cc1`, for which the XC50 came to 1130 nM.
As to `CN(C)CCNCc1cccc(-c2ccc3c(Nc4ccc(Oc5ccccn5)cc4)ccnc3c2)c1`, the XC50 turned out to be 233 nM.
The molecule `Cc1cccc(NC(c2cccs2)c2c(NC(=O)c3ccccc3)sc(C)c2C)n1` (centres undefined) had an XC50 of 832 nM.
In turn, `c1csc(-c2nc(N3CCCCC3)ncc2-c2ccsc2)n1` yielded an XC50 of 136 nM.
`CC1(C)NC(N)=NC(=N)N1OCCCCCOc1ccccc1`: the XC50 is 3.2 nM.
With `O=S(=O)(NCCN1CCCC1)c1ccc(-c2ccc(CNCc3ccc(F)cc3)cc2)s1`, the XC50 is 838 nM.
`c1ccc(Oc2ccc(Nc3ccnc4cc(-c5ccc(CNCCN6CCOCC6)o5)ccc34)cc2)nc1` showed an XC50 of 1440 nM.
Molecule `CCOc1ccc(C(=O)Nc2cc(Br)c3c(c2)CNCC3)cc1C#N` showed an XC50 of 765 nM.
Molecule `CS(=O)(=O)c1ccc2[nH]c(-c3cc(-c4cccc(F)c4)cnc3N)nc2c1` yielded an XC50 of 1090 nM.
In turn, `CS(=O)(=O)c1ccc(-c2cncc(Cl)n2)cc1` displayed an XC50 of 770 nM.
The value for `OC1(c2ccccc2)c2cc(Cl)ccc2OC1c1nc2c(Cl)ccc(Cl)c2o1` (centres undefined) was 301 nM; that for `CCc1cc2c(N)nc(N)nc2nc1-c1ccccc1` was 946 nM; that for `CN(C)CCCNc1ccnc2cc(Cl)ccc12` was 283 nM.
The result for `O=C(C=Cc1ccc(-c2nc3ccccc3[nH]2)cc1)NC1CCN(Cc2ccccc2)CC1` reads 740 nM.
Turning to `O=C1C[C@@H]([S+]([O-])Cc2nccs2)N1CCOCCCCCCc1ccc(Cl)cc1` (some centres undefined), the XC50 is 1020 nM.
Take `O=C(/C=C/c1ccccc1)N1CCOC(CCN2CCC(c3ccccc3)CC2)(c2ccc(Cl)c(Cl)c2)C1` (centres undefined): the XC50 was 516 nM.
